This note sets out measurements from patent publication US20240368135A1 (VERTEX PHARMACEUTICALS INCORPORATED, priority 2021, published 2024).

The structures appear in SMILES notation.

By IC50 is commonly meant the concentration needed to halve the response being measured.

Sequence of human NaV 1.8 (Q9Y5Y9 126-399 limits assumed): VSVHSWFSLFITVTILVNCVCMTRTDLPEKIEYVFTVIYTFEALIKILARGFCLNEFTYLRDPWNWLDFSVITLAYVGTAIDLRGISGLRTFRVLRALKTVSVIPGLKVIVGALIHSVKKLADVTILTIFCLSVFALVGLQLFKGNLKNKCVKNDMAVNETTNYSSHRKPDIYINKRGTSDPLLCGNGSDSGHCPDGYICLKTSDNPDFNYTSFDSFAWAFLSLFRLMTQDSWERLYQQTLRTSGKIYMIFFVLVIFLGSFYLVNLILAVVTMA
Sequence of human NaV 1.8 (Q9Y5Y9 660-890 limits assumed): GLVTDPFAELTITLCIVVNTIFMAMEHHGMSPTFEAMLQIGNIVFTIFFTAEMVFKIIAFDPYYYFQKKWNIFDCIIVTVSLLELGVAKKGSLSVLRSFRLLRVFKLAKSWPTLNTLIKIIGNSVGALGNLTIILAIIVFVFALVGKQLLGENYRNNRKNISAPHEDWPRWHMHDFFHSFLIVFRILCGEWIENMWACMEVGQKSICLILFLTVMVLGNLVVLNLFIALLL
Sequence of human NaV 1.8 (Q9Y5Y9 1148-1722 limits assumed): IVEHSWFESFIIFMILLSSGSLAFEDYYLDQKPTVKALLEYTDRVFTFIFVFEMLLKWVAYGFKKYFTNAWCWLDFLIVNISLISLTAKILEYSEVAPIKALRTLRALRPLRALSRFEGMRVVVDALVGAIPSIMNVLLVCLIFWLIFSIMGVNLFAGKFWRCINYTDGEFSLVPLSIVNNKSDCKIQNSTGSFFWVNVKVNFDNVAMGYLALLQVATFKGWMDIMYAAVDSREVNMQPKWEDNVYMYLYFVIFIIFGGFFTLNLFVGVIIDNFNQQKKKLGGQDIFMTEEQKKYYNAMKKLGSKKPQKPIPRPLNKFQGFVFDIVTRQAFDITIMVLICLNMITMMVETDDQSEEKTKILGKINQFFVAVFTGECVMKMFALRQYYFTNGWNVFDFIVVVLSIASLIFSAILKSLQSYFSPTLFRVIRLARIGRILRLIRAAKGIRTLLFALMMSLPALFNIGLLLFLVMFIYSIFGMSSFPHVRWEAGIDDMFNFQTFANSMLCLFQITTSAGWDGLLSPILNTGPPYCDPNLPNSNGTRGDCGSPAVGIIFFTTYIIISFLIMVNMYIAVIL

The first experiment has as its target human NaV 1.8 (Homo sapiens, UniProt Q9Y5Y9). Nature of the experiment: E-VIPR assay detecting and measuring NaV inhibition properties. It is filed as cell-based. To be noted: HEK cells expressing truncated human NaV 1.8; in the presence of human serum (compound numbers followed by *); read-out: IC50 in the E-VIPR Assay, performed in the presence of human serum. The essentials: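 Membrane potential was followed by coumarin/oxonol FRET during electrical field stimulation of matrigel-seeded HEK cells carrying truncated human NaV1.8 plus KIR2.1. Dosing used 11 points, 3-fold steps, top 300 nM final, 0.625% DMSO, with or without 25% human serum.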
In the case of `C[C@H]1[C@@H](c2ccc(F)c(F)c2OC(F)F)[C@H](C(=O)Nc2cncc(C#N)c2)O[C@@]1(C)C(F)(F)F` (single isomer, unassigned) [Compound 70], the half-inhibitory concentration (IC50) lay within 100 to 1000 nM.
With `COc1c([C@@H]2C[C@](C)(C(F)(F)F)O[C@H]2C(=O)Nc2ccnc([C@H](O)[C@@H](C)O)c2)ccc(F)c1F` (stereo in doubt) [Compound 699, rel-(2R,3S,5R)-3-(3,4-difluoro-2-methoxyphenyl)-N-(2-((1S,2R)-1,2-dihydroxypropyl)pyridin-4-yl)-5-methyl-5-(trifluoromethyl)tetrahydrofuran-2-carboxamide], the IC50 lay within 10 to 100 nM.

Still in this experiment, the particulars now being: HEK cells expressing truncated human NaV 1.8; no human serum; read-out: IC50 in the E-VIPR Assay.
As to `COc1c([C@H]2[C@H](C(=O)Nc3ccnc(C4(N)COC4)n3)O[C@@](C)(C(F)(F)F)[C@H]2C)ccc(F)c1F` [Compound 310, (2R,3S,4S,5R)-N-[2-(3-aminooxetan-3-yl)pyrimidin-4-yl]-3-(3,4-difluoro-2-methoxy-phenyl)-4,5-dimethyl-5-(trifluoromethyl)tetrahydrofuran-2-carboxamide], the IC50 was 10 to 100 nM.
On to `CN=S(C)(=O)c1cc(NC(=O)[C@H]2O[C@](C)(C(F)(F)F)[C@H](C)[C@@H]2c2ccc(F)c(F)c2OC)ccn1` (relative stereo) [Compound 527, rel-(2S,3R,4R,5S)-3-(3,4-difluoro-2-methoxyphenyl)-N-(2-(N,S-dimethylsulfonimidoyl)pyridin-4-yl)-4,5-dimethyl-5-(trifluoromethyl)tetrahydrofuran-2-carboxamide], for which the concentration for half-maximal inhibition (IC50) fell in the range of 100 to 1000 nM.
On the same count and under the same terms, under `COc1c(C2C(C(=O)Nc3ccnc(C(C)(C)O)c3)OC(C)(C(F)(F)F)C2C)ccc(F)c1F` (single isomer, unassigned) [Compound 48, 3-(3,4-difluoro-2-methoxy-phenyl)-N-[2-(1-hydroxy-1-methyl-ethyl)-4-pyridyl]-4,5-dimethyl-5-(trifluoromethyl)tetrahydrofuran-2-carboxamide] stands < 10 nM.
Turning to `COc1c([C@H]2[C@H](C(=O)Nc3cc(C[C@H](O)CO)n(C)n3)O[C@@](C)(C(F)(F)F)[C@H]2C)ccc(F)c1F` [Compound 5, (2R,3S,4S,5R)-3-(3,4-difluoro-2-methoxyphenyl)-N-(5-((S)-2,3-dihydroxypropyl)-1-methyl-1H-pyrazol-3-yl)-4,5-dimethyl-5-(trifluoromethyl)tetrahydrofuran-2-carboxamide], the IC50 is 10 to 100 nM.
In the case of `COc1c([C@H]2[C@H](C(=O)Nc3cnc4c(c3)C(O)CC4)O[C@@](C)(C(F)(F)F)[C@H]2C)ccc(F)c1F` (single isomer, unassigned) [Compound 434, rel-(2R*,3S*,4S*,5R*)-3-(3,4-difluoro-2-methoxyphenyl)-N-(5-hydroxy-6,7-dihydro-5H-cyclopenta[b]pyridin-3-yl)-4,5-dimethyl-5-(trifluoromethyl)tetrahydrofuran-2-carboxamide], the IC50 lay in the range of 100 to 1000 nM.
Same read-out and setting: under `C[C@H]1[C@@H](c2ccc(F)c(F)c2OCC2COC2)[C@H](C(=O)Nc2ccc(C(N)=O)nc2)O[C@@]1(C)C(F)(F)F` [Compound 580, 5-((2R,3S,4S,5R)-3-(3,4-difluoro-2-(oxetan-3-ylmethoxy)phenyl)-4,5-dimethyl-5-(trifluoromethyl)tetrahydrofuran-2-carboxamido)picolinamide] stands < 10 nM; under `COc1c([C@H]2[C@H](C(=O)Nc3ccc4cnnn4c3)O[C@@](C)(C(F)(F)F)[C@H]2C)ccc(F)c1F` [Compound 329, (2R,3S,4S,5R)-N-([1,2,3]triazolo[1,5-a]pyridin-6-yl)-3-(3,4-difluoro-2-methoxyphenyl)-4,5-dimethyl-5-(trifluoromethyl)-tetrahydrofuran-2-carboxamide], < 10 nM.
For `COCc1c(F)ccc([C@H]2[C@H](C(=O)Nc3ccc(C(N)=O)nc3)O[C@@](C)(C(F)(F)F)[C@H]2C)c1OC` (stereo in doubt) [Compound 179, rel-5-((2R,3S,4S,5R)-3-(4-fluoro-2-methoxy-3-(methoxymethyl)phenyl)-4,5-dimethyl-5-(trifluoromethyl)tetrahydrofuran-2-carboxamido)picolinamide], the half-maximal inhibitory concentration (IC50) lay within 10 to 100 nM.
For `Cc1nocc1NC(=O)[C@@H]1O[C@@](C)(C(F)(F)F)[C@@H](C)[C@H]1c1ccc(F)c(F)c1OCCN1CC(C(F)F)C1` [Compound 629, (2R,3S,4S,5R)-3-(2-(2-(3-(difluoromethyl)azetidin-1-yl)ethoxy)-3,4-difluorophenyl)-4,5-dimethyl-N-(3-methylisoxazol-4-yl)-5-(trifluoromethyl)tetrahydrofuran-2-carboxamide], the IC50 lay in the range of 10 to 100 nM.
On the same count and under the same terms, under `C[C@H]1[C@@H](c2ccc(F)c(F)c2)[C@H](C(=O)Nc2ccnc(S(C)(=O)=O)c2)O[C@@]1(C)C(F)(F)F` (stereo in doubt) [Compound 155, rel-(2R,3S,4S,5R)-3-(3,4-difluorophenyl)-4,5-dimethyl-N-(2-(methylsulfonyl)pyridin-4-yl)-5-(trifluoromethyl)tetrahydrofuran-2-carboxamide] stands 10 to 100 nM; under `COc1c([C@H]2[C@H](C(=O)Nc3ccnc(N4C[C@@H]5CC[C@H](C4=O)N5C)c3)O[C@@](C)(C(F)(F)F)[C@H]2C)ccc(F)c1F` (single isomer, unassigned) [Compound 504, rel-(2R*,3S*,4S*,5R*)-3-(3,4-difluoro-2-methoxyphenyl)-4,5-dimethyl-N-(2-((1R,5S)-8-methyl-2-oxo-3,8-diazabicyclo[3.2.1]octan-3-yl)pyridin-4-yl)-5-(trifluoromethyl)tetrahydrofuran-2-carboxamide], 10 to 100 nM; under `COc1c([C@H]2[C@H](C(=O)Nc3ccc(CC4CCOC4)nc3)O[C@@](C)(C(F)(F)F)[C@H]2C)ccc(F)c1F` (stereo partly drawn) [Compound 392, (2R,3S,4S,5R)-3-(3,4-difluoro-2-methoxyphenyl)-4,5-dimethyl-N-(6-((tetrahydrofuran-3-yl)methyl)pyridin-3-yl)-5-(trifluoromethyl)-tetrahydrofuran-2-carboxamide], 100 to 1000 nM.
Consider `COc1c([C@H]2[C@H](C(=O)Nc3cc(C(C)(O)CF)ncn3)O[C@@](C)(C(F)(F)F)[C@H]2C)ccc(F)c1F` (single isomer, unassigned) [Compound 228, rel-(2R*,3S*,4S*,5R*)-3-(3,4-difluoro-2-methoxyphenyl)-N-(6-(1-fluoro-2-hydroxypropan-2-yl)pyrimidin-4-yl)-4,5-dimethyl-5-(trifluoromethyl)tetrahydrofuran-2-carboxamide], for which the 50% inhibitory concentration (IC50) lay in the range of 10 to 100 nM.
For the compound `COc1c([C@H]2[C@H](C(=O)N3Cc4ccncc4C3)O[C@@](C)(C(F)(F)F)[C@H]2C)ccc(F)c1F` [Compound 323, ((2R,3S,4S,5R)-3-(3,4-difluoro-2-methoxyphenyl)-4,5-dimethyl-5-(trifluoromethyl)-tetrahydrofuran-2-yl)(1,3-dihydro-2H-pyrrolo[3,4-c]pyridin-2-yl)methanone], the half-inhibitory concentration (IC50) was ≥ 1000 nM.
Same read-out and setting: under `C[C@H]1[C@@H](c2ccc(F)c(F)c2OCCO)[C@H](C(=O)Nc2ccnc(C(F)F)c2)O[C@@]1(C)C(F)(F)F` [Compound 566, (2R,3S,4S,5R)-3-(3,4-difluoro-2-(2-hydroxyethoxy)phenyl)-N-(2-(difluoromethyl)pyridin-4-yl)-4,5-dimethyl-5-(trifluoromethyl)tetrahydrofuran-2-carboxamide] stands < 10 nM.
